Test results taken from ChEMBL document CHEMBL4732166, “Thiosemicarbazide binds with the dicopper center in the competitive inhibition of mushroom tyrosinase enzyme: Synthesis and molecular modeling of theophylline analogues” (Bioorg Med Chem Lett, 2021).
pKi: −log10 of the molar value.

The compounds below were run against T1, Mushroom tyrosinase (Agaricus bisporus, UniProt O42713+Q00024+C7FF04+C7FF05) (assay: Competitive inhibition of mushroom tyrosinase using […] as substrate by Lineweaver-Burk plot analysis). Conditions: not given.
Compound `CCn1c(Oc2ccc(/C=N/NC(N)=S)cc2)nc2c1c(=O)n(C)c(=O)n2C` has a Ki of 0.67 µM.

These compounds were tested against Mushroom tyrosinase (Agaricus bisporus) (UniProt O42713+Q00024+C7FF04+C7FF05). Conditions: dose 50.0 µM.
Description: Inhibition of mushroom tyrosinase using PNP-G as substrate at 50 nM relative to control
For `CCn1c(NN)nc2c1c(=O)n(C)c(=O)n2C`, the inhibition was over 40%. Compound `CCn1c(Oc2ccc(/C=N/NC(N)=S)cc2)nc2c1c(=O)n(C)c(=O)n2C` has an inhibition of over 40%. With `CCn1c(Oc2ccc(C=C3C(=O)NC(=S)NC3=O)cc2)nc2c1c(=O)n(C)c(=O)n2C` the inhibition was 30.2%. With `CCn1c(N/N=C/c2nc3ccccc3[nH]2)nc2c1c(=O)n(C)c(=O)n2C` the inhibition was 27%. For `CCn1c(Oc2ccc(/C=N/N=C3/C(=O)Nc4ccccc43)cc2)nc2c1c(=O)n(C)c(=O)n2C`, the inhibition was over 40%. Work on `CCn1c(Oc2ccc(C3C(C#N)=C(N)Oc4[nH]c(=S)[nH]c(=O)c43)cc2)nc2c1c(=O)n(C)c(=O)n2C` (stereo not drawn) yielded an inhibition of 32.7%. Work on `CCn1c(Oc2ccc(C3C4=C(CC(C)(C)CC4=O)NC4=C3C(=O)CC(C)(C)C4)cc2)nc2c1c(=O)n(C)c(=O)n2C` yielded an inhibition of over 40%. Work on `CCn1c(Oc2ccc(C=O)cc2)nc2c1c(=O)n(C)c(=O)n2C` yielded an inhibition of 29.5%. Compound `CCn1c(Oc2ccc(-c3nnc(NC(C)=O)s3)cc2)nc2c1c(=O)n(C)c(=O)n2C` has an inhibition of 33.6%. For `CCn1c(Oc2ccc(/C=N/N=C3/NC(=O)CS3)cc2)nc2c1c(=O)n(C)c(=O)n2C`, the inhibition was 29.4%. For `CCn1c(Oc2ccc(C=C(C#N)C#N)cc2)nc2c1c(=O)n(C)c(=O)n2C`, the inhibition was over 40%. With `CCn1c(Oc2ccc(/C=N/N)cc2)nc2c1c(=O)n(C)c(=O)n2C` the inhibition was over 40%. For `CCn1c(Oc2ccc(/C=N\Nc3c(F)c(F)c(F)c(F)c3F)cc2)nc2c1c(=O)n(C)c(=O)n2C`, the inhibition was over 40%. Compound `CCn1c(Oc2ccc(/C=N/Nc3ccccn3)cc2)nc2c1c(=O)n(C)c(=O)n2C` has an inhibition of over 40%. Compound `CCn1c(Oc2ccc(-c3nc(-c4ccccc4)c(-c4ccccc4)[nH]3)cc2)nc2c1c(=O)n(C)c(=O)n2C` has an inhibition of over 40%. Compound `CCn1c(Oc2ccc(/C=N\NC(=O)c3cccnc3)cc2)nc2c1c(=O)n(C)c(=O)n2C` has an inhibition of 40.3%.

The compounds below were run against T1, Mushroom tyrosinase (assay: Inhibition of mushroom tyrosinase using […] as substrate). Conditions: not given.
`CCn1c(Oc2ccc(/C=N/NC(N)=S)cc2)nc2c1c(=O)n(C)c(=O)n2C` gave a pKi of 6.17.
